The text below walks through data of publication PMC12395297, “Bidirectional Modification of a Galbulimima Alkaloid Identifies Selective Opioid Ligands” (ACS Central Science, 2025).

One assay concerns 320 GPCRs. Kind of assay: GPCRome PRESTO-Tango screen across 320 GPCRs (PDSP). In kind it is cell-based.
Assay [1] has as its target T1, KOR (Homo sapiens, UniProt P41145). Nature of the assay: Inhibition of forskolin-stimulated cAMP accumulation (KOR agonism, HTRF). It counts as cell-based.
For assay [2], the target named is T1, KOR. Kind of assay: 35S-GTPγS binding in CHO-KOR cells. In kind it is biochemical. As to conditions: read-out: KOR Emax. Background: Binding of GTPγS marks nucleotide exchange on a G protein.
Assay [3] addresses T1, KOR. Nature of the assay: KOR affinity (pKi) of pyridyl GB18 analogs, Figure 1b. To be noted: footnote a. In kind it is binding.
The target of assay [4] is T1, KOR. Further details: method as in earlier paper of the authors (Woo, Shenvi, Nature 2022). To be noted: antagonism; TANGO β-arrestin signaling, n = 3; ref earlier paper of the authors (Woo, Shenvi, Nature 2022); cited from earlier work.
The target of a further assay is MOR (Homo sapiens, UniProt P35372). Also on record: method as in earlier paper of the authors (Woo, Shenvi, Nature 2022). As to conditions: antagonism; TANGO β-arrestin signaling, n = 3; ref earlier paper of the authors (Woo, Shenvi, Nature 2022); cited from earlier work.

pEC50, pKi: −log10 of the molar value. Entries after “also recorded” stand apart in the source; their conditions may differ.

T1 sequence (P41145 whole entry): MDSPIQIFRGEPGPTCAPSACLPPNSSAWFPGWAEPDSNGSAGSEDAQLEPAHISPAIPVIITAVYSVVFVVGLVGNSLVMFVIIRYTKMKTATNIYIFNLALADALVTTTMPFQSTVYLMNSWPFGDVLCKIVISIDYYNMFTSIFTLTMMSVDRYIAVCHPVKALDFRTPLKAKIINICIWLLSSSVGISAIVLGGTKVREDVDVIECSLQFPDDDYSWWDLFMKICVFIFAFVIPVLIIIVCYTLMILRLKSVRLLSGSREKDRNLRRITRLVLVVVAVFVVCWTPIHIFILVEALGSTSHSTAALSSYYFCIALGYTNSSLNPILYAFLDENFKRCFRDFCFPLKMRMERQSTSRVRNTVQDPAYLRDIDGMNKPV
Sequence of MOR (P35372 whole entry): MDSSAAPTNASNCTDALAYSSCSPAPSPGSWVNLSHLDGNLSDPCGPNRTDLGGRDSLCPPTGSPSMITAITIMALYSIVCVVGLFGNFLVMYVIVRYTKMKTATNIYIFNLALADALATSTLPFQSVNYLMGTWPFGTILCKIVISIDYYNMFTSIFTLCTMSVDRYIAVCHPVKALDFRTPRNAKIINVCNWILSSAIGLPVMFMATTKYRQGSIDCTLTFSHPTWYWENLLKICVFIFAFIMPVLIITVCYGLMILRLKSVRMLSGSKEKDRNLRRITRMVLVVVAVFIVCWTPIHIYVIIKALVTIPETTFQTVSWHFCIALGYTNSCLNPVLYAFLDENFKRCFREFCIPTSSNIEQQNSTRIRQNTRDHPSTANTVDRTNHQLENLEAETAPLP

One may read the pEC50 as −log10 of the EC50, conventionally taken in molar units. Usually Emax stands for the size of the effect at its maximum, as opposed to the concentration needed. For orientation: pKi means the negative decadic logarithm of the Ki, by convention in mol/L. On to `COC(=O)C1=CC23CCCCC2C2CC(c4cccc(C)n4)C(C)(O3)C12` (stereo not shown) [compound 2], for which the “GPCR selectivity in PRESTO-Tango agonist screen” value in the assay on 320 GPCRs was “highly selective partial agonist; also recorded: agonized KOR with high selectivity among 320 GPCRs”. This compound also had a pEC50 at KOR [1] (inhibition of forskolin-stimulated cAMP accumulation, Figure 4 and text) of 6.32. For the same compound, the Emax at KOR [1] (read-out: KOR Emax) stood at 56%; on KOR [2], 34%. Besides, the pKi on KOR [3] is 7.53.

Take GB18: the “KOR pIC50” value at KOR [4] is given as 8. The “MOR pIC50” value on MOR is recorded as 8.
